# Structures can show the parent of a compound that is named as a salt.
# Key:
# [1] = test system: K562, U937, MDA-DB231, BT20 and MCF7 cell lines; test: Cytotoxic effects in multi-well plate, 6 days, ATP level (CellTiter-Glo); conditions: 2x10^-9 M to 2x10^-4 M
# Procedure: In order to test the cytotoxic effects of various compounds, a test was developed in a multi-well plate. Two leukemic cell lines, namely K562 and U937, and three breast cancer cell lines, namely MDA-DB231, BT20 and MCF7 were used for this test.
# The cells were seeded at low density and were left for 24 hours to recover and reach a new logarithmic phase of growth. Various concentrations of the compounds being tested, ranging from 2×10^−9 M to 2×10^−4 M, were added in triplicate. The mixture was incubated for 6 days, during which approximately 4 doublings of the cell population occurred, to allow the cells to reach subconfluence.
# The viability of the cultured cells after the treatment by the compounds was determined by quantifying the level of ATP since the level of ATP is directly proportional to the number of viable cells present in the culture. The ATP level was quantified by using CellTiter-Glo™ (Promega) luminescent test for cell viability.
# [2] = test system: blastic cells from AML patients; test: Inhibition of viability of fresh leukemic cells (trypan blue exclusion); type: cell-based, human; conditions: day 3; for In Vitro Percent Inhibition of Viability, MEAN: MEAN over AML patients
# Procedure: Samples for AML 1 through 5, AML 1 being the least and AML 5 being the most differentiated, were obtained. […] Cells were incubated with or without […] anti-histamine derivatives. Polaramine was included as a negative control. Cell counts were assessed by trypan blue exclusion test at day 3 after the incubation. Morphological analysis was performed using Wright-Giemsa staining on cytocentrifuge preparations. The results were expressed as % inhibition of growth as compared to negative control.
# [3] = test system: K562, U937, Jurkat, T47-D, MCF7, BT20 and 184B5 cell lines; test: Cytotoxicity in malignant and immortalized cell lines (manual counting, Alamar assay); type: cell-based; conditions: all of the cell lines tested
# Procedure: These four compounds were added at different concentrations to cultures of various malignant cell lines and normal cells. The cell lines used for these tests were the following:
# All leukemic cell lines were grown and used in logarithmic phase. After one day of treatment, the cells were isolated, counted and diluted in a regular growth medium to provide the cell density of about 75×10^3 cells/ml for reading on plates at 48 hours after the treatment, and […] for reading at 144 hours after the treatment.
# Several dilutions of each compound tested were added to the wells (12 wells per plate, TPP), and 1 ml of cells from the parent solution was added per well after a line had been completed. The dilutions were made using the culture medium, and following dilutions were tested: control, which contained no compound of this invention; 1:100; 1:1,000; 1:2,000; 1:5,000; and 1:10,000. The starting concentrations for these dilutions were: 50 mg/ml for compound A; 10 mg/ml for compound B; 25 mg/ml for compound C; and 5 mg/ml for compound D. The results were analyzed by manual counting and Alamar reduced assay.
# The cells were grown on their respective propagation medium and seeded 24 hours before the compounds are added. The cells were trypsinized, and 50,000 cells/well and 10,000 cells/well were seeded in order to read the plates at 48 hours and 144 hours after being treated by the compounds, respectively.
# On the day of the treatment, the medium was replaced by 10 ml each of series dilution of the compounds, consisting of: control, which contained no compound of this invention; 1:100 dilution; 1:1,000 dilution; 1:2,000 dilution; and 1:5,000 dilution. The starting concentrations for these dilutions were: 50 mg/ml for compound A; 10 mg/ml for compound B; 25 mg/ml for compound C; and 5 mg/ml for compound D. The dilution was made using the growth medium.
# A tested compound is regarded as being active in cytotoxicity where the percentage of surviving cells after the treatment with the compound is less than 30%.
smiles,measurement,setting,value
"OCCN1CCN(CC/C=C2/c3ccccc3Sc3ccc(C(F)(F)F)cc32)CC1 [i41, flupentixol]",cytotoxic effect group,[1],I
same,"In Vitro Percent Inhibition of Viability, MEAN",[2]; 10^-5 M,50%
same,"In Vitro Percent Inhibition of Viability, MEAN",[2]; 10^-6 M,24%
same,In Vitro Percent Inhibition of Viability,"[2]; patient ID 1, FAB AML1, 10^-5 M",20%
same,In Vitro Percent Inhibition of Viability,"[2]; patient ID 1, FAB AML1, 10^-6 M",25%
same,In Vitro Percent Inhibition of Viability,"[2]; patient ID 2, FAB AML1, 10^-5 M",30%
same,In Vitro Percent Inhibition of Viability,"[2]; patient ID 2, FAB AML1, 10^-6 M",0%
same,In Vitro Percent Inhibition of Viability,"[2]; patient ID 3, FAB AML2, 10^-5 M",68%
same,In Vitro Percent Inhibition of Viability,"[2]; patient ID 3, FAB AML2, 10^-6 M",34%
same,In Vitro Percent Inhibition of Viability,"[2]; patient ID 4, FAB AML2, 10^-5 M",38%
same,In Vitro Percent Inhibition of Viability,"[2]; patient ID 4, FAB AML2, 10^-6 M",35%
same,In Vitro Percent Inhibition of Viability,"[2]; patient ID 5, FAB AML2, 10^-5 M",40%
same,In Vitro Percent Inhibition of Viability,"[2]; patient ID 5, FAB AML2, 10^-6 M",1%
same,In Vitro Percent Inhibition of Viability,"[2]; patient ID 6, FAB AML3, 10^-5 M",85%
same,In Vitro Percent Inhibition of Viability,"[2]; patient ID 6, FAB AML3, 10^-6 M",24%
same,In Vitro Percent Inhibition of Viability,"[2]; patient ID 7, FAB AML3, 10^-5 M",50%
same,In Vitro Percent Inhibition of Viability,"[2]; patient ID 7, FAB AML3, 10^-6 M",30%
same,In Vitro Percent Inhibition of Viability,"[2]; patient ID 8, FAB AML3, 10^-5 M",46%
same,In Vitro Percent Inhibition of Viability,"[2]; patient ID 8, FAB AML3, 10^-6 M",38%
same,In Vitro Percent Inhibition of Viability,"[2]; patient ID 9, FAB AML3, 10^-5 M",97%
same,In Vitro Percent Inhibition of Viability,"[2]; patient ID 9, FAB AML3, 10^-6 M",23%
same,In Vitro Percent Inhibition of Viability,"[2]; patient ID 10, FAB AML4, 10^-5 M",55%
same,In Vitro Percent Inhibition of Viability,"[2]; patient ID 10, FAB AML4, 10^-6 M",33%
same,In Vitro Percent Inhibition of Viability,"[2]; patient ID 11, FAB AML5, 10^-5 M",75%
same,In Vitro Percent Inhibition of Viability,"[2]; patient ID 11, FAB AML5, 10^-6 M",36%
same,In Vitro Percent Inhibition of Viability,"[2]; patient ID 12, FAB AML5, 10^-5 M",55%
same,In Vitro Percent Inhibition of Viability,"[2]; patient ID 13, FAB AML5, 10^-5 M",40%
same,In Vitro Percent Inhibition of Viability,"[2]; patient ID 13, FAB AML5, 10^-6 M",24%
same,In Vitro Percent Inhibition of Viability,"[2]; patient ID 14, FAB AML5, 10^-5 M",25%
same,In Vitro Percent Inhibition of Viability,"[2]; patient ID 14, FAB AML5, 10^-6 M",23%
same,In Vitro Percent Inhibition of Viability,"[2]; patient ID 15, FAB AML5, 10^-5 M",27%
same,In Vitro Percent Inhibition of Viability,"[2]; patient ID 15, FAB AML5, 10^-6 M",16%
"CN(C)CC[C@@H](c1ccc(Cl)cc1)c1ccccn1 [D, dexchlorpheniramine maleate]",cytotoxic activity,[3],little or no cytotoxic activity
same,cytotoxicity at 10 µM,"[2]; Homo sapiens, 72 h, patient ID 14, FAB AML5, 10^-5 M, read-out: In Vitro Percent Inhibition of Viability",9%
